Where two headings read alike, the source gives them in different places.
Tests used:
RBL-2H3 cells [1] = assay: Inhibition of mast cell degranulation (β-hexosaminidase release); assay type: cell-based, rat; conditions: for IC50: RBL-2H3 cells sensitized with anti-DNP IgE, triggered with DNP-HSA, 1 h preincubation
Text: Mast cells are key effector cells involved in allergic and inflammatory diseases, and the Rat Basophilic Leukemia clone 2H3 (RBL-2H3) cell line is a commonly used model of allergen dependent immune modulator release (degranulation) in mast cells. On their surface, they express the high affinity receptor for IgE (FcεRI). Upon binding of antigen-specific IgE to the receptor, cells become sensitized to the IgE specific antigen (allergen). When IgE-sensitized cells then encounter multivalent antigen, the antigen clusters IgE-FcεRI complexes and initiates a signal transduction cascade that leads to degranulation, that is, the release of inflammatory mediators, such as cytokines, eicosanoids, histamine and enzymes. The assay can be used as a screening method to identify immune-modulating compounds, in particular compounds useful in the medical management of allergic and inflammatory diseases and asthma, β-hexosaminidase was previously shown to be released with the same kinetics as histamine (Schwartz et al., J Immunology; 123:1445-1450 (1979)), thus offering a simple means to monitor degranulation. The RBL-2H3 cell line has been successfully used to identify compounds with anti-allergic activity (Choo et al. Planta Med., 69:518-522 (2003)).
Cell Culture: RBL-2H3 cells obtained from the German Collection of Microorganisms and Cell Cultures (ACC312) (Braunschweig, Germany) were maintained in 70% Minimum Essential Medium with Earle's Salts, 20% RPMI 1640 Medium, 10% FBS and 2 mM l-glutamine in 95% air/5% CO2 at 37° C. and routinely checked for mycoplasma contamination. Cells were passaged every 3-4 days; after washing cells once with 35 ml PBS cells were incubated 8 min with 5 ml 0.05% Trypsin-EDTA solution at 37° C. Cells were removed from the incubator, 15 ml culture medium was added and cells were resuspended by repeated pipetting.
Cell seeding: cells were harvested with Trypsin-EDTA as described and 50-100 μl cell suspension seeded Into Costar CellBind 24 well cluster plates (no. 3337). Plates were kept for 30 min at RT under the sterile hood before being transferred to the incubator. Cells were used within one or two days after seeding.
For sensitization, cells for immediate use were sensitized 6-12 h after plating; cells to be used the following day were sensitized 26-38 h after plating. Culture plates were removed from the incubator and checked for cell growth and contamination. The medium was discarded and cells were sensitized with anti-DNP IgE (0.4 μg/ml) in 0.4 ml culture medium overnight. Following overnight sensitization, cells were washed with 0.8 ml pre-warmed TyB and 0.38 ml test compound or vehicle control (supplemented or not with 1% FBS) were added to duplicate wells. Samples were adjusted to contain 1% vehicle for test compounds dissolved in organic solvents. Cells were incubated for 1 h at 37° C. At the end of the incubation period, cells were routinely stimulated with 20 μl DNP-HSA (2 μg/ml; final concentration 0.1 μg/ml) diluted in TyB and cells were incubated for 15 min at 37° C. Alternatively, cells were stimulated with 20 μl […] (final concentration 0.25 μM) or 20 nM […] (final concentration 0.25 μM), both in the absence or presence of 20 nM PMA (final concentration).
Plates were removed from the incubator and immediately centrifuged at 4° C. for 5 min at 250×g and transferred to an ice bath. Aliquots of supernatants, 25 μl, were transferred to 96-well plates. Remaining supernatant was aspirated from control wells and cells were lysed in […] lysis buffer for 5 min at RT on an orbital shaker at 450 rpm under non-sterile conditions. After lysis, 25 μl aliquots of lysates were transferred to 96-well plates.
MUG substrate solution, 100 μl, were added to supernatant and lysate samples and plates were incubated 30 min at 37° C. The reaction was terminated by addition of 150 μl stop solution. Fluorescence was measured at 365 nm excitation and 440 nm emission wavelengths. […]

RBL-2H3 cells [2] = assay: Maximum tolerated concentration (cytotoxicity by lactate dehydrogenase release); assay type: cell-based, rat
Text: A commercially available cytotoxicity test was used (Promega Cytotox-One cat. #67891).
The safety index (SI) of a test compound Is the ratio between the maximum tolerated concentration and the 1C50 and is used as a measure of the relative safety of the test compound.

[3] = Rattus norvegicus, 25 μM, RBL-2H3 cells
[4] = highest concentration not causing cytotoxicity, LDH release
[5] = ratio between maximum tolerated concentration and IC50

| Compound | MTC (maximum tolerated concentration) (RBL-2H3 cells [2]; [4]) [µM] | IC50 (RBL-2H3 cells [1]; Rattus norvegicus) [µM] | SI (safety index, ratio MTC/IC50) (RBL-2H3 cells [2]; [5]) | IC50 (RBL-2H3 cells [1]) [µM] | other results |
| --- | --- | --- | --- | --- | --- |
| CCCCCCCCCCCC[N+](C)(C)CCC(=O)[O-] [Compound 1m, 3-(Dimethyl(Dodecyl)Ammonio)Propanoate] | 100 |  |  |  | inhibition at 25 µM (RBL-2H3 cells [1]; [3]): 73% |
| CCCCCCCCCCCCN(C)CCS(=O)(=O)O [Compound 1q, 2-(N-Methyldodecylammonio)Ethanesulfonate] | 200 | 8.8 | 22.7 |  |  |
| CCCCCCCCCCCCCCCC[N+]1(CCCS(=O)(=O)[O-])CCC(O)CC1 (centres unmarked) [Compound 2b, 1-Hexadecyl-1-(3-Sulfonatopropyl)-4-Hydroxypiperidinium] | 50 | 4.3 | 11.6 |  |  |
| CCCCCCCCCCCCCC[N+](C)(C)CCCCS(=O)(=O)[O-] [Compound 1e, 4-(N1N-Dimethylmyristylammonio)Butanesulfonate] |  |  |  | 3.7 | MTC (maximum tolerated concentration) (RBL-2H3 cells [2]): 150 µM; SI (safety index, ratio MTC/IC50) (RBL-2H3 cells [2]): 40.5 |
| CCCCCCCCCCCCCC[N+](C)(C)CCC(=O)[O-] [Compound 1k, 3-(Dimethyl(Tetradecyl)Ammonio)Propanoate] | 100 | 5.3 | 18.9 |  |  |
| CCCCCCCCCCCCCCN(C)CCCP(=O)(O)O [Compound 1u, 3-(N-Methyl-N-Tetradecylamino)Propylphosphonic Acid (Betaine)] | 200 |  | 33.9 | 5.9 |  |
| CCCCCCCCCCCCCC[N+](C)(C)CC(=O)[O-] [Compound 1j, N-Tetradecyl-N,N-Dimethylglycine] | 75 |  | 14.7 | 5.1 |  |
| CCCCCCCCCCCCCCN(C)CCCS(=O)(=O)O [Compound 1b, 3-(N-Methyltetracylammonio)Propanesulfonate] |  |  |  | 4.3 | MTC (maximum tolerated concentration) (RBL-2H3 cells [2]): 100 µM; SI (safety index, ratio MTC/IC50) (RBL-2H3 cells [2]): 23.3 |
| CCCCCCCCCCCCCCN(C)CCS(=O)(=O)O [Compound 1s, 2-(N-Methyltetradecylammonio)Ethanesulfonate] | 100 | 5.6 | 17.9 |  |  |
| Br.CCCCCCCCCCCCCCN(C)CCCP(=O)(OCC)OCC [Compound 1x, 3-(N-Methyl-N-Tetradecylamino)Propylphosphonic Acid Diethyiester Hydrobromide] | 100 |  | 18.2 | 5.5 |  |
| CCCCCCCCCCCCCCCCOP(=O)([O-])OCC[N+](C)(C)C [Miltefosine, reference compound] |  | 4.2 |  |  | MTC (maximum tolerated concentration) (RBL-2H3 cells [2]; rat): 25 µM; SI (safety index, ratio MTC/IC50) (RBL-2H3 cells [2]; rat): 6.0 |
| CCCCCCCCCCCCCC[N+](C)(C)CCS(=O)(=O)[O-] [Compound 1d, 2-(N,N-Dimethyltetradecylammonio)Ethanesulfonate] | 100 | 3.9 | 25.6 |  |  |
| CCCCCCCCCCCC[N+](C)(C)CC(=O)[O-] [Compound 1p, N-Dodecyl-N,N-Dimethylglycine] |  |  |  |  | Inhibition of degranulation: % inhibition at 25 μM (RBL-2H3 cells [1]; 25 μM, RBL-2H3 cells): 50%; MTC (maximum tolerated concentration) (RBL-2H3 cells [2]): 100 µM |
| CCCCCCCCCCCCCCN(C)CCCC(=O)O [Compound 1n, 4-(Methyl(Tetradecyl)Ammonio)Butanoate] | 100 | 8 | 12.5 |  |  |
| CCCCCCCCCCCCCC[N+](C)(C)CCCC(=O)[O-] [Compound 1o, 4-(Dimethyl(Tetradecyl)Ammonio)Butanoate] | 100 |  |  |  | inhibition at 25 µM (RBL-2H3 cells [1]; [3]): 65% |
| CCCCCCCCCCCC[N+](C)(C)CCCS(=O)(=O)[O-] [Compound 1i, 3-(N,N-dimethyldodecyl-ammonio) propanesulfonate] |  |  |  | 4.1 | MTC (maximum tolerated concentration) (RBL-2H3 cells [2]): 200 µM; SI (safety index, ratio MTC/IC50) (RBL-2H3 cells [2]): 48.8 |
| CCCCCCCCCCCCCC[N+](C)(C)CC(CC)CS(=O)(=O)[O-] (centres unmarked) [Compound 1f, 2-((Dimethyl(Tetradecyl)Ammonio)Methyl)Butane-1-Sulfonate] | 75 | 4 | 18.8 |  |  |
| CCCCCCCCCCCCCCCCN(C)CCCP(=O)(O)O [Compound 1v, 3-(N-Methyl-N—Hexadecylamino)Propylphosphonic Acid] | 200 | 8.8 | 22.7 |  |  |
| CCCCCCCCCCCC[N+](C)(C)CCCP(=O)(O)O [Compound 1t, 3-(N,N-Dimethyldodecylammonio)Propylphosphonic Acid] | 200 |  | 32.8 | 6.1 |  |
| CCCCCCCCCCCCCCCCCC[N+](C)(C)CCCS(=O)(=O)[O-] [Compound 1g, 3-(N,N-Dimethyloctadecylammonio)Propanesulfonate] | 50 | 9.5 | 5.3 |  |  |
| CCCCCCCCCCCCCC[N@+]1(CCCS(=O)(=O)[O-])CCC[C@H](C(=O)N(CC)CC)C1 (racemic) [Compound 2c, Trans-N-Tetradecyl-N-(3-Sulfonatopropyl)-3-Diethylaminocarbonyl-Piperidinium] | 100 |  |  |  | inhibition at 25 µM (RBL-2H3 cells [1]; [3]): 50% |
| CCCCCCCCCCCC[N+](C)(C)CCS(=O)(=O)[O-] [Compound 1r, 2-(N,N-Dimethyldodecylammonio)Ethanesulfonate] | 200 | 4.2 | 47.6 |  |  |
| Br.CCCCCCCCCCCCCCCCN(C)CCCP(=O)(OCC)OCC [Compound 1w, 3-(N-Methyl-N—Hexadecylamino)Propylphosphonic Acid Diethylester Hydrobromide] | 200 | 6.9 | 29.0 |  |  |
| CCCCCCCCCCCCCCCC[N+]1(CCCS(=O)(=O)[O-])CCCCC1 [Compound 2a, N—Hexadecyl-N-(3-Sulfonatopropyl)Piperidinium] | 50 | 4.5 | 11.1 |  |  |
| CCCCCCCCCCCCCCCC[N+](C)(C)CCCS(=O)(=O)[O-] [Compound 1h, 3-(N,N-dimethyIpalmitylammonio)propansulfonate] |  |  |  | 3.7 | MTC (maximum tolerated concentration) (RBL-2H3 cells [2]): 50 µM; SI (safety index, ratio MTC/IC50) (RBL-2H3 cells [2]): 13.5 |

From patent publication US10829506B2, “Amino- or ammonium-containing sulfonic acid, phosphonic acid and carboxylic acid derivatives and their medical use” (GRI Bio, Inc., priority 2011, dated 2020)
